Results taken from ChEMBL document CHEMBL6109109, “Fatty acid binding protein 5 inhibitors as novel anticancer agents against metastatic castration-resistant prostate cancer” (Bioorg Med Chem, 2025).

How the values were obtained:
PC-3 [1] = test: Synergistic anticancer activity against human PC-3 cells assessed as cell growth inhibition at 20 uM measured after 72 hrs in presence of 1 uM of topotecan by MTT assay relative to control; type: functional; settings: read-out: GI
[2] = Synergistic anticancer activity against mouse RCaP cells assessed as cell growth inhibition at 5 uM measured after 72 hrs in presence of 0.01 uM of topotecan by MTT assay relative to control; type: functional; settings: read-out: GI
PC-3 [3] = test: Synergistic anticancer activity against human PC-3 cells assessed as cell growth inhibition at 5 uM measured after 72 hrs in presence of 0.001 uM of topotecan by MTT assay relative to control; type: functional; settings: read-out: GI
PC-3 [4] = test: Induction of apoptosis in human PC-3 cells assessed as necrotic cells at 15 uM measured after 72 hrs by Annexin V-FITC/propidium iodide staining based FACS analysis (reference value: 0.11%); type: functional
PC-3 [5] = test: Cytotoxicity against human PC-3 cells assessed as cell growth inhibition at 20 uM measured after 72 hrs by MTT assay relative to control; type: functional; settings: read-out: GI
[6] = Cytotoxicity against mouse RCaP cells assessed as cell growth inhibition at 20 uM measured after 72 hrs by MTT assay relative to control; type: functional; settings: read-out: GI
[7] = Synergistic anticancer activity against mouse RCaP cells assessed as cell growth inhibition at 20 uM measured after 72 hrs in presence of 0.00001 uM of topotecan by MTT assay relative to control; type: functional; settings: read-out: GI
PC-3 [8] = test: Induction of apoptosis in human PC-3 cells assessed as early apoptotic cells at 15 uM measured after 72 hrs by Annexin V-FITC/propidium iodide staining based FACS analysis (reference value: 0.54%); type: functional
[9] = Synergistic anticancer activity against mouse RCaP cells assessed as cell growth inhibition at 10 uM measured after 72 hrs in presence of 0.0001 uM of topotecan by MTT assay relative to control; type: functional; settings: read-out: GI
[10] = Synergistic anticancer activity against mouse RCaP cells assessed as cell growth inhibition at 5 uM measured after 72 hrs in presence of 0.1 uM of topotecan by MTT assay relative to control; type: functional; settings: read-out: GI
[11] = Synergistic anticancer activity against mouse RCaP cells assessed as cell growth inhibition at […] measured after 72 hrs in presence of 0.001 uM of topotecan by MTT assay relative to control; type: functional; settings: dose 2.5 µM, read-out: GI
PC-3 [12] = test: Cytotoxicity against human PC-3 cells assessed as reduction in cell viability measured after 72 hrs by MTT assay; type: functional, cell-based; settings: PC-3, 72 h
PC-3 [13] = test: Synergistic anticancer activity against human PC-3 cells assessed as cell growth inhibition at 5 uM measured after 72 hrs in presence of 0.00001 uM of topotecan by MTT assay relative to control; type: functional; settings: read-out: GI
PC-3 [14] = test: Synergistic anticancer activity against human PC-3 cells assessed as cell growth inhibition at 10 uM measured after 72 hrs in presence of 0.001 uM of topotecan by MTT assay relative to control; type: functional; settings: read-out: GI
[15] = Synergistic anticancer activity against mouse RCaP cells assessed as cell growth inhibition at 10 uM measured after 72 hrs in presence of 0.00001 uM of topotecan by MTT assay relative to control; type: functional; settings: read-out: GI
[16] = Synergistic anticancer activity against mouse RCaP cells assessed as cell growth inhibition at 5 uM measured after 72 hrs in presence of 0.00001 uM of topotecan by MTT assay relative to control; type: functional; settings: read-out: GI
PC-3 [17] = test: Induction of apoptosis in human PC-3 cells assessed as viable cells at 15 uM measured after 72 hrs by Annexin V-FITC/propidium iodide staining based FACS analysis (reference value: 97.62%); type: functional; settings: read-out: Activity
PC-3 [18] = test: Synergistic anticancer activity against human PC-3 cells assessed as cell growth inhibition at 5 uM measured after 72 hrs in presence of 0.1 uM of topotecan by MTT assay relative to control; type: functional; settings: read-out: GI
PC-3 [19] = test: Synergistic anticancer activity against human PC-3 cells assessed as cell growth inhibition at 20 uM measured after 72 hrs in presence of 0.0001 uM of topotecan by MTT assay relative to control; type: functional; settings: read-out: GI
PC-3 [20] = test: Induction of apoptosis in human PC-3 cells assessed as late apoptotic cells at 15 uM measured after 72 hrs by Annexin V-FITC/propidium iodide staining based FACS analysis (reference value: 1.73%); type: functional
[21] = Synergistic anticancer activity against mouse RCaP cells assessed as cell growth inhibition at 20 uM measured after 72 hrs in presence of 0.1 uM of topotecan by MTT assay relative to control; type: functional; settings: read-out: GI
[22] = Synergistic anticancer activity against mouse RCaP cells assessed as cell growth inhibition at 20 uM measured after 72 hrs in presence of 1 uM of topotecan by MTT assay relative to control; type: functional; settings: read-out: GI
[23] = Synergistic anticancer activity against mouse RCaP cells assessed as cell growth inhibition at 10 uM measured after 72 hrs in presence of 0.1 uM of topotecan by MTT assay relative to control; type: functional; settings: read-out: GI
[24] = Synergistic anticancer activity against mouse RCaP cells assessed as cell growth inhibition at 5 uM measured after 72 hrs in presence of 1 uM of topotecan by MTT assay relative to control; type: functional; settings: read-out: GI
PC-3 [25] = test: Synergistic anticancer activity against human PC-3 cells assessed as cell growth inhibition at 5 uM measured after 72 hrs in presence of 10 uM of topotecan by MTT assay relative to control; type: functional; settings: read-out: GI
[26] = Synergistic anticancer activity against mouse RCaP cells assessed as cell growth inhibition at 10 uM measured after 72 hrs in presence of 10 uM of topotecan by MTT assay relative to control; type: functional; settings: read-out: GI
[27] = Cytotoxicity against human WI-38 cells assessed as reduction in cell viability measured after 72 hrs by MTT assay; type: toxicity, cell-based
[28] = Synergistic anticancer activity against mouse RCaP cells assessed as cell growth inhibition at 1.25 uM measured after 72 hrs in presence of 10 uM of topotecan by MTT assay relative to control; type: functional; settings: read-out: GI
PC-3 [29] = test: Synergistic anticancer activity against human PC-3 cells assessed as cell growth inhibition at 0.625 uM measured after 72 hrs in presence of 0.1 uM of topotecan by MTT assay relative to control; type: functional; settings: read-out: GI
PC-3 [30] = test: Synergistic anticancer activity against human PC-3 cells assessed as cell growth inhibition at […] measured after 72 hrs in presence of 0.0001 uM of topotecan by MTT assay relative to control; type: functional; settings: dose 2.5 µM, read-out: GI
PC-3 [31] = test: Synergistic anticancer activity against human PC-3 cells assessed as cell growth inhibition at 1.25 uM measured after 72 hrs in presence of 0.001 uM of topotecan by MTT assay relative to control; type: functional; settings: read-out: GI
PC-3 [32] = test: Cytotoxicity against human PC-3 cells assessed as cell growth inhibition at 1.25 uM measured after 72 hrs by MTT assay relative to control; type: functional; settings: read-out: GI
PC-3 [33] = test: Synergistic anticancer activity against human PC-3 cells assessed as cell growth inhibition at […] measured after 72 hrs in presence of 0.001 uM of topotecan by MTT assay relative to control; type: functional; settings: dose 2.5 µM, read-out: GI
[34] = Cytotoxicity against mouse RCap cells assessed as reduction in cell viability measured after 72 hrs by MTT assay; type: functional, cell-based
[35] = Binding affinity to FABP5 (unknown origin); parameters: species or system Homo sapiens

Compound | inhibition of growth at 20 µM (PC-3 [1]) [%] | inhibition of growth at 5 µM [2] [%] | inhibition of growth at 5 µM (PC-3 [3]) [%] | inhibition of growth at 20 µM (PC-3 [5]) [%] | inhibition of growth at 20 µM [6] [%] | inhibition of growth at 20 µM [7] [%] | inhibition of growth at 10 µM [9] [%] | inhibition of growth at 5 µM [10] [%] | inhibition of growth at […] [11] [%] | IC50 (PC-3 [12]) [µM] | inhibition of growth at 5 µM (PC-3 [13]) [%] | inhibition of growth at 10 µM (PC-3 [14]) [%] | inhibition of growth at 10 µM [15] [%] | inhibition of growth at 5 µM [16] [%] | inhibition of growth at 5 µM (PC-3 [18]) [%] | inhibition of growth at 20 µM (PC-3 [19]) [%] | inhibition of growth at 20 µM [21] [%] | inhibition of growth at 20 µM [22] [%] | inhibition of growth at 10 µM [23] [%] | inhibition of growth at 5 µM [24] [%] | other results
COc1ccccc1[C@H]1[C@H](C(=O)O)[C@H](c2ccccc2OC)[C@H]1C(=O)OCC1c2ccccc2-c2ccccc21 | 99.8 | 31.8 | 28.7 | 89.1 | 98.2 | 98.1 | 75.1 | 93.6 | 6.8 | 10.5 | 24.6 | 60.9 | 76.5 | 9.57 | 56.3 | 99.8 | 99.9 | 99.1 | 94.3 | 99 | Activity (PC-3 [4]): 0.3%; Activity (PC-3 [8]): 5.38%; viability at 15 µM (PC-3 [17]): 88.7%; Activity (PC-3 [20]): 5.63%; inhibition of growth at 5 µM (PC-3 [25]): 86.4%; inhibition of growth at 10 µM [26]: 99.2%; IC50 at 72 h [27]: 23 µM
COc1ccccc1[C@H]1[C@H](C(=O)O)[C@H](c2ccccc2OC)[C@H]1C(=O)Oc1cc(-c2ccc3c(c2)OCO3)ccc1-c1ccccc1 | 99.1 | 49.6 | 43.5 | 99.2 | 99.7 | 100 | 89.4 | 91.9 | 1.77 | 6.52 | 44.3 | 72.4 | 89.5 | 27.6 | 66.6 | 99.5 | 99.6 | 100 | 89.9 | 97.9 | inhibition of growth at 1.25 µM [28]: 99.2%; inhibition of growth at 0.625 µM (PC-3 [29]): 69.4%; Activity (PC-3 [4]): 1.25%; inhibition of growth at […] (PC-3 [30]): 25.3%; inhibition of growth at 1.25 µM (PC-3 [31]): 33.1%; Activity (PC-3 [8]): 20.86%; inhibition of growth at 1.25 µM (PC-3 [32]): -2.3%; viability at 15 µM (PC-3 [17]): 25.8%; Activity (PC-3 [20]): 52.11%; inhibition of growth at 5 µM (PC-3 [25]): 92.5%; inhibition of growth at 10 µM [26]: 97%; IC50 at 72 h [27]: 10.8 µM; inhibition of growth at […] (PC-3 [33]): 34.3%; IC50 [34]: 3.44 µM; Ki [35]: 0.65 µM
O=C(O)[C@H]1[C@H](c2ccccc2)[C@H](C(=O)Oc2cc(-c3ccc4c(c3)OCO4)ccc2-c2ccccc2)[C@H]1c1ccccc1 | 99.3 | 34.4 | 29.1 | 96.1 | 94.7 | 97.6 | 68 | 87.2 | 6.33 | 9.89 | 28.5 | 81.1 | 68.4 | 27 | 49.9 | 89 | 98.9 | 98.8 | 97.2 | 97.9 | inhibition of growth at 5 µM (PC-3 [25]): 80.8%; inhibition of growth at 10 µM [26]: 99.9%; IC50 at 72 h [27]: 19.5 µM; IC50 [34]: 12.3 µM; Ki [35]: 0.66 µM
